For one assay, the system named is H4. Kind of assay: Antiproliferative activity against human H4 cells assessed as inhibition of cell growth measured after 72 hrs by CCK-8 assay. Type of assay: functional, cell-based. To be noted: H4, 72 h. A general note: Formazan colour is commonly taken as a measure of viable cells.
For assay [1], the system named is LN-229. Kind of assay: Antiproliferative activity against human LN-229 cells assessed as inhibition of cell growth measured after 72 hrs by CCK-8 assay. The class given is functional, cell-based. The conditions noted are these: LN-229, 72 h.
For the next assay, the system named is Hs 683. As to the kind of experiment: Antiproliferative activity against human Hs 683 cells assessed as inhibition of cell growth measured after 72 hrs by CCK-8 assay. The class given is functional, cell-based. The conditions noted are these: Hs 683, 72 h.
The next assay deals with U-251. Kind of assay: Antiproliferative activity against human U-251MG cells assessed as inhibition of cell growth measured after 72 hrs by CCK-8 assay. The conditions noted are these: U-251, 72 h. Type of assay: functional, cell-based.
The target of assay [2] is BUB3-interacting and GLEBS motif-containing protein ZNF207 (Homo sapiens, UniProt O43670). As to the kind of experiment: Binding affinity to human ZNF207 assessed as dissociation constant by SPR analysis.
Chain of BUB3-interacting and GLEBS motif-containing protein ZNF207 (O43670 whole entry): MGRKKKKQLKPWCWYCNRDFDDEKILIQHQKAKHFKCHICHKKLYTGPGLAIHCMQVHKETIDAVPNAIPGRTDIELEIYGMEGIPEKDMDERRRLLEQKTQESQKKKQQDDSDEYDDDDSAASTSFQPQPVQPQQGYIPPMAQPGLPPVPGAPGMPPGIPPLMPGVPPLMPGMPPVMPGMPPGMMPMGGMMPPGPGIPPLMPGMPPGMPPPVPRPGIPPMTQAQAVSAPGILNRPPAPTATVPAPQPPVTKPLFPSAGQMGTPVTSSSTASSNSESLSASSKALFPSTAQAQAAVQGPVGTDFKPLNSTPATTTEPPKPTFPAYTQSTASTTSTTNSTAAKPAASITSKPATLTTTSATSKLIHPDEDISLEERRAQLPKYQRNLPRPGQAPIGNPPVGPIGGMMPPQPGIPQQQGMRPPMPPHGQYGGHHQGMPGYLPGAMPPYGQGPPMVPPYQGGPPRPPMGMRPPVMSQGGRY
Assay [3] concerns LN-229. As to the kind of experiment: Antitumor activity against human LN-229 cells xenografted in BALB/c nude mouse assessed as tumor growth inhibition at 150 mg/kg, ip administered twice a week and measured every 2 days for 49 days relative to control. Type of assay: functional. The conditions noted are these: LN-229, 1176 h, time 49 day, read-out: TGI. Background: A xenograft is tissue or cells of one species grown in another, often human tumour cells in immunodeficient mice.

Assay [4] deals with LN-229. As to the kind of experiment: Antitumor activity against human LN-229 cells xenografted in BALB/c nude mouse assessed as reduction in proportion of Ki-67 positive cells at 150 mg/kg, ip administered twice a week and measured after 49 days by immunohistochemistry analysis. Type of assay: functional, organism-based. To be noted: time 49.0 day.
A further assay has as its system LN-229-Luc. Kind of assay: Antitumor activity against human Ln-229-Luc cells xenografted in BALB/c nude mouse assessed as increase in overall survival time at 150 mg/kg, ip administered twice a week and measured after 3 to 31 days. To be noted: time 3-31 day. The class given is functional, organism-based.

Molecules are shown by their SMILES. pIC50, pKd: −log10 of the molar value. Active and inactive are the calls of the source. No cut-off for these calls is given here.

One may read the pIC50 as −log10 of the IC50, conventionally taken in molar units. Turning to `N#CC1(C(=O)NCCSc2ccccc2)CC2(Br)c3ccccc3C1c1ccccc12` (racemic), the pIC50 in the assay on H4 is 4.77; with LN-229 [1] it was 4.84; with Hs 683, 4.93; with U-251, 4.78.

Turning to `N#CC1(C(=O)NCCCc2ccc(Br)cc2)CC2(Br)c3ccccc3C1c1ccccc12` (racemic), the negative logarithm of the IC50 (pIC50) is 4.28 in the assay on H4, 4.61 with LN-229 [1], 4.32 in the assay on Hs 683 and 4.42 in the assay on U-251.

On to `N#CC1(C(=O)NCCc2ccc(Br)cc2)CC2(Br)c3ccccc3C1c1ccccc12` (racemic), for which the pIC50 with H4 was 4.99; with LN-229 [1] it was 5.01; in the assay with Hs 683, 5.07; with U-251 it was 4.52.

By pKd is commonly meant the negative decadic logarithm of the Kd, by convention in mol/L. `N#CC1(C(=O)Nc2ccc([N+](=O)[O-])cc2)CC2c3ccccc3C1c1ccccc12` (racemic): the pIC50 was 4.60 in the assay with H4, 4.71 in the assay on LN-229 [1], 4.58 in the assay on Hs 683 and 4.87 in the assay on U-251. Besides, the pKd in assay [2] was 5.62.

With `N#CC1(C(=O)NCCc2ccccc2F)CC2(Br)c3ccccc3C1c1ccccc12` (racemic), the pIC50 with H4, with LN-229 [1], in the assay with Hs 683 and in the assay with U-251 was less than 4.10 in each case.

Turning to `N#CC1(C(=O)NCCS(=O)(=O)Nc2ccc(F)cc2)CC2(Br)c3ccccc3C1c1ccccc12` (racemic), the negative-log IC50 (pIC50) in the assay on H4 is 4.66; in the assay on LN-229 [1] it was 4.90; in the assay with Hs 683 it was 4.75; in the assay on U-251, 4.67.

As to `N#CC1(C(=O)NCCC(=O)Nc2ccc(F)cc2)CC2(Br)c3ccccc3C1c1ccccc12` (racemic), the pIC50 is 4.80 with H4, 4.84 with LN-229 [1], 4.90 in the assay with Hs 683 and 4.30 in the assay with U-251.

Turning to `N#CC1(C(=O)NCCS(=O)(=O)Nc2ccccc2)CC2(Br)c3ccccc3C1c1ccccc12` (racemic), the pIC50 in the assay on H4 was 4.64; with LN-229 [1] it was 4.58; in the assay on Hs 683, 4.82; with U-251 it was 4.63.

For the compound `N#CC1(C(=O)NCCS(=O)(=O)c2ccc(Cl)cc2)CC2(Br)c3ccccc3C1c1ccccc12` (racemic), the pIC50 in the assay on H4 is 4.82; with LN-229 [1] it was 5.04; in the assay with Hs 683, 4.98; in the assay on U-251 it was 4.63.

Regarding `N#CC1(C(=O)NCCc2ccc(Cl)cc2)CC2(Br)c3ccccc3C1c1ccccc12` (racemic), the pIC50 was 4.60 in the assay with H4, 5.11 in the assay with LN-229 [1], 4.64 in the assay with Hs 683 and 4.62 in the assay on U-251.

On to `N#CC1(C(=O)NCCCc2ccccc2)CC2(Br)c3ccccc3C1c1ccccc12` (racemic), for which the pIC50 in the assay with H4 was 4.31; in the assay with LN-229 [1], 4.70; with Hs 683, less than 4.10; in the assay on U-251, 4.34.

As for `Cn1nnc2c(C(N)=O)ncn2c1=O` [TEMOZOLOMIDE], the negative-log IC50 (pIC50) with H4 was 4.32; in the assay on LN-229 [1], 4.27; with Hs 683, 4.33; with U-251 it was 4.36. Besides, in the assay with LN-229 [3], the inhibition in vivo at 150 mg/kg was 69.6%. Moreover, the result in the assay with LN-229 [4] and in the assay on LN-229-Luc was Active.

Source of the values: ChEMBL document CHEMBL5528066, “Discovery of Novel N-(Anthracen-9-ylmethyl) Benzamide Derivatives as ZNF207 Inhibitors Promising in Treating Glioma” (J Med Chem, 2024).
